According to ChEMBL document CHEMBL1148006, “Benzimidazo[1,2-c][1,2,3]thiadiazole-7-sulfonamides as inhibitors of carbonic anhydrase” (Bioorg Med Chem Lett, 2007):

Biological target: Carbonic anhydrase 2 (Bos taurus, UniProt P00921)
Experiment: Binding affinity to bovine CA2 by typical isothermal titration calorimetry

Chain of Carbonic anhydrase 2 (P00921 whole entry): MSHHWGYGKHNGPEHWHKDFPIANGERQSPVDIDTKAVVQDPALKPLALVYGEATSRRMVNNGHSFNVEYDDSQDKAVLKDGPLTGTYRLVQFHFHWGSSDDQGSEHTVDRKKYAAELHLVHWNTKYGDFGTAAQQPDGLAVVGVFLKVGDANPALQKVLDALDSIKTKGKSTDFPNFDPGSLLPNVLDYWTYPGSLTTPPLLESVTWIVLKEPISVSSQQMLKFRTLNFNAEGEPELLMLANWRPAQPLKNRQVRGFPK

| SMILES | Kd [nM] |
| --- | --- |
| CSC1=S=Nn2c1nc1ccc(S(N)(=O)=O)cc12 | 322 |
| NS(=O)(=O)c1ccc2nc3n(c2c1)N=S=C3N1CCOCC1 | 38 |
| CN1CCN(C2=S=Nn3c2nc2ccc(S(N)(=O)=O)cc23)CC1 | 391 |
| NS(=O)(=O)c1ccc2nc3n(c2c1)N=S=C3 | 286 |
| NS(=O)(=O)c1ccc2nc3n(c2c1)N=S=C3Cl | 141 |
| NS(=O)(=O)c1ccc2nc3n(c2c1)N=S=C3Sc1ccccc1 | 285 |
| CS(=O)(=O)C1=S=Nn2c1nc1ccc(S(N)(=O)=O)cc12 | 500 |
